Patent US6114310A, “Efflux pump inhibitors” (priority 1998, dated 2000)

Test system: Pseudomonas aeruginosa PAM1001
Experiment: microbe, parasite or virus in culture
Format: cell-based
Experimental: The activity of efflux pump inhibitors (EPI) in combination with fluoroquinolones, such as levofloxacin, is assessed by the checkerboard assay (Antimicrobial Combinations. In Antibiotics in Laboratory Medicine, Ed. Victor Lorian, M. D., Fourth edition, 1996, pp 333-338) using broth microdilution method performed as recommended by the NCCLS (National Committee for Clinical Laboratory Standards (NCCLS). 1997. Methods for Dilution of Antimicrobial Susceptibility Tests for Bacteria That Grow Aerobically--Fourth Edition; Approved Standard. NCCLS Document M7-A4, Vol 17 No.2). The test organism used is Pseudomonas aeruginosa PAM1001.
In this assay, multiple dilutions of two drugs, namely the EPI and levofloxacin, are being tested, alone and in combination, at concentrations equal to, above and below their respective minimal inhibitory concentrations (MICs).
Stock solutions are further diluted, according to the needs of a particular assay, in Mueller Hinton Broth (MHB). Stock solution can be stored at -80° C. Quinolones are solubilized according to the instructions of the manufacturers, at a concentration of 1 mg/ml. They are then further diluted in MHB. Stock solution can be stored at -80° C.
The checkerboard assay is performed in microtiter plates. Levofloxacin is diluted in the x axis, each column containing a single concentration of levofloxacin. The EPI is diluted in the y axis, each row containing an equal concentration of EPI. The result of these manipulations is that each well of the microtiter plate contains a unique combination of concentrations of the two agents. Each EPI are tested independently.
The assay is performed in MHB with a final bacterial inoculum of 5×10^5 CFU/ml (from an early-log phase culture). Microtiter plates are incubated during 20 h at 35° C. and are read using a microtiterplate reader (Molecular Devices) at 650 nm as well as visual observation using a microtiterplate reading mirror.

[1] = Table 1, EPI Conc. μg/ml (number not given; column between 10 and 40 μg/ml)
[2] = Table 2, EPI Conc. μg/ml (number not given; column between 10 and 40 μg/ml)
[3] = Table 3, EPI Conc. μg/ml (number not given; column between 10 and 40 μg/ml)
[4] = Table 4, EPI Conc. μg/ml (number not given; column between 10 and 40 μg/ml)

Row | Substance | Levofloxacin MIC Against P. aeruginosa PAM1001 in Presence of Efflux Pump Inhibitor (EPI), Minimum Inhibitory Concentration (Table 1, EPI Conc. 0 μg/ml) [µg/mL] | Levofloxacin MIC Against P. aeruginosa PAM1001 in Presence of Efflux Pump Inhibitor (EPI), Minimum Inhibitory Concentration (Table 1, EPI Conc. 0.625 μg/ml) [µg/mL] | Levofloxacin MIC Against P. aeruginosa PAM1001 in Presence of Efflux Pump Inhibitor (EPI), Minimum Inhibitory Concentration (Table 1, EPI Conc. 5 μg/ml) [µg/mL] | Levofloxacin MIC Against P. aeruginosa PAM1001 in Presence of Efflux Pump Inhibitor (EPI), Minimum Inhibitory Concentration (Table 1, EPI Conc. 10 μg/ml) [µg/mL] | Levofloxacin MIC Against P. aeruginosa PAM1001 in Presence of Efflux Pump Inhibitor (EPI), Minimum Inhibitory Concentration (Table 1, EPI Conc. 40 μg/ml) [µg/mL] | Levofloxacin MIC Against P. aeruginosa PAM1001 in Presence of Efflux Pump Inhibitor (EPI), Minimum Inhibitory Concentration [1] [µg/mL] | Levofloxacin MIC Against P. aeruginosa PAM1001 in Presence of Efflux Pump Inhibitor (EPI), Minimum Inhibitory Concentration (Table 2, EPI Conc. 0 μg/ml) [µg/mL] | Levofloxacin MIC Against P. aeruginosa PAM1001 in Presence of Efflux Pump Inhibitor (EPI), Minimum Inhibitory Concentration (Table 2, EPI Conc. 0.625 μg/ml) [µg/mL] | Levofloxacin MIC Against P. aeruginosa PAM1001 in Presence of Efflux Pump Inhibitor (EPI), Minimum Inhibitory Concentration (Table 2, EPI Conc. 5 μg/ml) [µg/mL] | Levofloxacin MIC Against P. aeruginosa PAM1001 in Presence of Efflux Pump Inhibitor (EPI), Minimum Inhibitory Concentration (Table 2, EPI Conc. 10 μg/ml) [µg/mL] | Levofloxacin MIC Against P. aeruginosa PAM1001 in Presence of Efflux Pump Inhibitor (EPI), Minimum Inhibitory Concentration (Table 2, EPI Conc. 40 μg/ml) [µg/mL] | Levofloxacin MIC Against P. aeruginosa PAM1001 in Presence of Efflux Pump Inhibitor (EPI), Minimum Inhibitory Concentration [2] [µg/mL] | Levofloxacin MIC Against P. aeruginosa PAM1001 in Presence of Efflux Pump Inhibitor (EPI), Minimum Inhibitory Concentration (Table 3, EPI Conc. 0 μg/ml) [µg/mL] | Levofloxacin MIC Against P. aeruginosa PAM1001 in Presence of Efflux Pump Inhibitor (EPI), Minimum Inhibitory Concentration (Table 3, EPI Conc. 0.625 μg/ml) [µg/mL] | Levofloxacin MIC Against P. aeruginosa PAM1001 in Presence of Efflux Pump Inhibitor (EPI), Minimum Inhibitory Concentration (Table 3, EPI Conc. 5 μg/ml) [µg/mL] | Levofloxacin MIC Against P. aeruginosa PAM1001 in Presence of Efflux Pump Inhibitor (EPI), Minimum Inhibitory Concentration (Table 3, EPI Conc. 10 μg/ml) [µg/mL] | Levofloxacin MIC Against P. aeruginosa PAM1001 in Presence of Efflux Pump Inhibitor (EPI), Minimum Inhibitory Concentration (Table 3, EPI Conc. 40 μg/ml) [µg/mL] | Levofloxacin MIC Against P. aeruginosa PAM1001 in Presence of Efflux Pump Inhibitor (EPI), Minimum Inhibitory Concentration [3] [µg/mL] | Levofloxacin MIC Against P. aeruginosa PAM1001 in Presence of Efflux Pump Inhibitor (EPI), Minimum Inhibitory Concentration (Table 4, EPI Conc. 0 μg/ml) [µg/mL] | Levofloxacin MIC Against P. aeruginosa PAM1001 in Presence of Efflux Pump Inhibitor (EPI), Minimum Inhibitory Concentration (Table 4, EPI Conc. 0.625 μg/ml) [µg/mL] | further results
1 | D-Lysyl-β-N-(Cyclopropylmethyl)alanine Quinoline-3-amide Trifluoroacetate [Example 27] | 4 | 4 | 0.125 | 0.125 | 0.06 | 0.125 | 4 | 4 | 2 | 2 | 2 | 2 | 4 | 4 | 0.06 | 0.03 | 0.03 | 0.03 | 4 | 4 | Levofloxacin MIC Against P. aeruginosa PAM1001 in Presence of Efflux Pump Inhibitor (EPI), Minimum Inhibitory Concentration (Table 4, EPI Conc. 5 μg/ml): 2 µg/mL; Levofloxacin MIC Against P. aeruginosa PAM1001 in Presence of Efflux Pump Inhibitor (EPI), Minimum Inhibitory Concentration (Table 4, EPI Conc. 10 μg/ml): 2 µg/mL; Levofloxacin MIC Against P. aeruginosa PAM1001 in Presence of Efflux Pump Inhibitor (EPI), Minimum Inhibitory Concentration (Table 4, EPI Conc. 40 μg/ml): 1 µg/mL; Levofloxacin MIC Against P. aeruginosa PAM1001 in Presence of Efflux Pump Inhibitor (EPI), Minimum Inhibitory Concentration (Table 4, EPI Conc. […]): 4 µg/mL; Levofloxacin MIC Against P. aeruginosa PAM1001 in Presence of Efflux Pump Inhibitor (EPI), Minimum Inhibitory Concentration [4]: 1 µg/mL
2 | D-Lysyl-β-N-(Ethylthioethyl)alanine 2-Naphthylamide Trifluoroacetate [Example 25] | 4 | 4 | 1 | 0.06 | 0.06 | 0.06 | 4 | 4 | 1 | 0.06 | 0.06 | 0.06 | 4 | 4 | 2 | 1 | 0.25 | 0.50 | 4 | 4 | Levofloxacin MIC Against P. aeruginosa PAM1001 in Presence of Efflux Pump Inhibitor (EPI), Minimum Inhibitory Concentration (Table 1, EPI Conc. […]): 4 µg/mL; Levofloxacin MIC Against P. aeruginosa PAM1001 in Presence of Efflux Pump Inhibitor (EPI), Minimum Inhibitory Concentration (Table 3, EPI Conc. […]): 4 µg/mL; Levofloxacin MIC Against P. aeruginosa PAM1001 in Presence of Efflux Pump Inhibitor (EPI), Minimum Inhibitory Concentration (Table 4, EPI Conc. 5 μg/ml): 0.125 µg/mL; Levofloxacin MIC Against P. aeruginosa PAM1001 in Presence of Efflux Pump Inhibitor (EPI), Minimum Inhibitory Concentration (Table 4, EPI Conc. 10 μg/ml): 0.06 µg/mL; Levofloxacin MIC Against P. aeruginosa PAM1001 in Presence of Efflux Pump Inhibitor (EPI), Minimum Inhibitory Concentration (Table 4, EPI Conc. 40 μg/ml): 0.125 µg/mL; Levofloxacin MIC Against P. aeruginosa PAM1001 in Presence of Efflux Pump Inhibitor (EPI), Minimum Inhibitory Concentration [4]: 0.125 µg/mL
